Data on two compounds can be found in paper PMC9964746, “Mechanism of Action and Structure–Activity Relationships of Tetracyclic Small Molecules Acting as Universal Positive Allosteric Modulators of the Cholecystokinin Receptor” (Membranes, 2023).

Where “and” joins values, the source holds several entries; their conditions need not be identical. Equal values may be shown once.

Format in all cases: cell-based
One assay addresses T1, CCK1R (Homo sapiens, UniProt P32238).
T1 sequence (P32238 1-428): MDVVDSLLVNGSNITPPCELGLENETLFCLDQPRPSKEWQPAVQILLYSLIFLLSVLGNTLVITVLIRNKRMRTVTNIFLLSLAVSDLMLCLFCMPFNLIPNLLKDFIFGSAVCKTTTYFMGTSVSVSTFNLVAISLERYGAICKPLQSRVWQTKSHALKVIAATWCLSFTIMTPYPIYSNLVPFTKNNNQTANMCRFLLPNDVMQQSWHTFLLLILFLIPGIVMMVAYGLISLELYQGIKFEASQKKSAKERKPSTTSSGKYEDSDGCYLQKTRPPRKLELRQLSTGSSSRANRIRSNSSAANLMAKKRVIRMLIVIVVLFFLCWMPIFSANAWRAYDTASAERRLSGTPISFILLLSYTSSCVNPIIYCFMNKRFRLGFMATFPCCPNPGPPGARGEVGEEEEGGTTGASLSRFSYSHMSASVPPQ
Briefly: Intracellular calcium assay (Fura-8-AM) in CHO-CCK1R cells. Details: expressed in transfected cells. The following applies: for Intrinsic agonist activity at CCK1R (intracellular calcium): CHO-CCK1R cells, compound alone, up to 20 µM; for Kb / Logαβ: operational model of allosterism, mean ± SEM; for Kb: CCK-8-stimulated calcium responses in CCK1R-expressing cells; for Logαβ: cooperativity with CCK-8 in CCK1R-expressing cells. The procedure:
(§1) Biological activity was quantified in the CHO cell lines described above using intracellular calcium assays that were performed, as previously described, using Fura-8-AM (AAT Bioquest, Pleasonton, CA, USA). Full agonist dose–response curves were performed along with determination of maximal responses to 0.1 mM ATP, targeting an endogenous receptor present on the parental cells. Concentration–response curves of peak intracellular calcium responses were analyzed and plotted as percentages of maximal responses using non-linear regression analysis in Prism 9.1 (GraphPad).

The next assay deals with T2, CCK2R (Homo sapiens, UniProt P32239).
T2 construct: expressed in transfected cells; host or cells: CHO-K1 (CHO-CCK2R line)
T2 sequence (P32239 1-447): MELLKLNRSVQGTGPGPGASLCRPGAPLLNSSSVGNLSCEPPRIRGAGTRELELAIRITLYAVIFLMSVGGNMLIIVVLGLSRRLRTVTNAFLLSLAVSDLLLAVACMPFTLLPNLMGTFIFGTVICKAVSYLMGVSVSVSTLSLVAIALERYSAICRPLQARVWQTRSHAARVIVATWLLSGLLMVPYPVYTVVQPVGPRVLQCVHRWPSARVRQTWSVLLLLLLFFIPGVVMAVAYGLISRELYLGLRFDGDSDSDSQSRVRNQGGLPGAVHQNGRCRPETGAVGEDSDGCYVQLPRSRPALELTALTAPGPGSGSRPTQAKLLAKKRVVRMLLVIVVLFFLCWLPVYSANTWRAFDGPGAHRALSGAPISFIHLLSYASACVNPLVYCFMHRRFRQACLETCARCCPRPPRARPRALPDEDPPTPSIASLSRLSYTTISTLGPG
The assay is described as follows: Intracellular calcium assay (Fura-8-AM) in CHO-CCK2R cells. The following applies: compound 10 µM. The procedure: as §1
(In general: Calcium flux is commonly read through the fluorescence of an indicator in the cells.)

Assay [1] concerns the target T3, vasopressin-2 receptor (AVP2R) (Homo sapiens, UniProt P30518).
T3 construct: expressed in transfected cells; host or cells: CHO-K1 (PAM format); HEK-293 (agonist format)
Briefly: AVP2R cAMP HTRF accumulation assay. The following applies: for AVP2R PAM (cAMP) Score (activity score = normalized Emax × pEC50): PAM format. A digest of the protocol:
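Readout is HTRF cAMP detection (30 min, room temperature) following 30 min compound exposure with vasopressin stimulation, using HEK-293 cells for agonist mode and CHO-K1 cells for PAM mode, both overexpressing AVP2R, in IBMX-containing HBSS/HEPES buffer. Curves: 16 points, 2-fold steps, duplicate, ≥2 experiments.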

In a further assay the test system is parental CHO cells. The assay is described as follows: Intracellular calcium assay in parental CHO cells. Conditions: compound alone, up to 20 µM. As to the method:
as §1

[2] abbreviates: CHO-K1 AVP2R cells, PAM format with vasopressin, original hits: agonist and PAM data combined, average ± SD.

T3 sequence (P30518 whole entry): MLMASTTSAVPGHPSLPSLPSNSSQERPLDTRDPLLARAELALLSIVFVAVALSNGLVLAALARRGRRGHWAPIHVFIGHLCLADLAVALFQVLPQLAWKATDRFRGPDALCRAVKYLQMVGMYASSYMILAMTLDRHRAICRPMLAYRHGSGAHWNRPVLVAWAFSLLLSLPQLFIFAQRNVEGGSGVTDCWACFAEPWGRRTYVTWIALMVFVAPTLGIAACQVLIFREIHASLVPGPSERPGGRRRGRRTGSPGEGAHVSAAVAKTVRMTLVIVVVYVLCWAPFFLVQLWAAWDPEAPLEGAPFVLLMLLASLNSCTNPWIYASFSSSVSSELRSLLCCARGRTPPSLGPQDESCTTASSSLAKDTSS

The Emax is the size of the effect at its maximum, as opposed to the concentration needed. As a reminder, the EC50 is the concentration giving half of the maximal effect. Consider `CCN(CC)CCNc1ncnc2c1sc1nc(N3CCOCC3)c3c(c12)CCCC3` [CMP-1], for which, at CCK1R, the “Intrinsic agonist activity at CCK1R (intracellular calcium)” value was “no significant endogenous agonist activity at CCK1R” and the Kb is 31.6 µM. Besides, the Logαβ at CCK1R (listed as Hit 1) amounted to 1.5 ± 0.3. Besides, the Logαβ on CCK1R (listed as hit 1) came out at 1.5. In addition, the “Effect on CCK action at CCK2R (intracellular calcium)” value at CCK2R is given as “no effect on CCK2R”. Also, the Emax in assay [1] (CHO-K1, CHO-K1 AVP2R cells, PAM format with vasopressin, original hits: agonist and PAM data combined, average ± SD) turned out to be 21%. For the same compound, in assay [1] (CHO-K1 AVP2R cells), the “AVP2R PAM (cAMP) Score (activity score = normalized Emax × pEC50)” value was 1.0 and 1.02. Also, in assay [1] (setting [2]), the “AVP2R PAM (cAMP) Emax” value came to 20.7 ± 9.8% and the EC50 came out at 12 ± 7.1 µM. Moreover, the “Agonist activity at parental CHO cells (intracellular calcium)” value in the assay with parental CHO cells is “no significant endogenous agonist activity”.
As to `CCCc1nc2oc3c(NCCCN(C)C)ncnc3c2c2c1CCCC2` [CMP-28], on CCK1R, the “Intrinsic agonist activity at CCK1R (intracellular calcium)” value is recorded as “no significant endogenous agonist activity at CCK1R” and the Kb was 25.1 µM. Besides, the Logαβ at CCK1R (listed as Hit 6) is listed as 1.0 ± 0.2. Moreover, the Logαβ on CCK1R (listed as hit 6) was 1.0. For the same compound, the “Effect on CCK action at CCK2R (intracellular calcium)” value on CCK2R was “no effect on CCK2R”. The “AVP2R PAM (cAMP) Score (activity score = normalized Emax × pEC50)” value in assay [1] (CHO-K1 AVP2R cells) was 3.53. In addition, in assay [1] (setting [2]), the EC50 came out at 15 ± 13.6 µM and the Emax worked out at 73 ± 16%. Moreover, the “Agonist activity at parental CHO cells (intracellular calcium)” value with parental CHO cells is “no significant endogenous agonist activity”.
